Holding throughout (assay type): biochemical
Assay [1] has as its target T1, Recombinant human TRKA (Homo sapiens, UniProt P04629).
T1 construct: purchased Carna Biosciences
Briefly: In vitro activity test on TRKA kinase (HTRF KinEASE TK). As to conditions: 14.68 μM ATP, 40 min. How it is done:
(§1) Biological Test Example 1 In Vitro Activity Test on TRKA, TRKB, TRKC Kinase
(§2) Recombinant human TRKA, TRKB, TRKC proteins were purchased from Carna Biosciences. HTRF KinEASE TK kit was purchased from Cisbio Bioassays. Synergy Neo 2 of Biotek was used to read the plate.
(§3) The tested compound was subjected to 3-fold serial dilution to reach a final concentration of 1 μM to 0.05 nM (10 concentrations), duplicates for each concentration; and the DMSO concentration in the detection reaction was 1%.
0.2 ng/μL TRKA protein kinase, 1 μM TK Substrate-biotin polypeptide substrate, 14.68 μM ATP, 1× enzymatic buffer, 5 mM MgCl2, and 1 mM DTT. The detection plate was White Proxiplate384-Plus plate (PerkinElmer), and incubated at room temperature for 40 min, and the assay volume was 10 μL.
(§4) 10 μL of detection reagent was added to the plate (containing 0.125 μM SA-XL665 and 5 μL 1×TK-Antibody) and incubated overnight at room temperature, and Synergy Neo 2 was used to read the plate.
(§5) The 665/620 Ratio was converted according to the following formula into inhibition rate (%)=(1−Ratiotest/Ratiomax)×100%. Ratiomax was a positive control without tested compound, and Ratiotest was the value of each concentration of different compounds. IC50 (nM) data was obtained by 4 parameter curve fitting (see Table 1).
(In general: TR-FRET usually uses a lanthanide donor and a delayed reading to cut background.)

The target in assay [2] is T2, Recombinant human TRKB (Homo sapiens, UniProt Q16620).
T2 construct: purchased Carna Biosciences
T2 sequence (Q16620 32-822): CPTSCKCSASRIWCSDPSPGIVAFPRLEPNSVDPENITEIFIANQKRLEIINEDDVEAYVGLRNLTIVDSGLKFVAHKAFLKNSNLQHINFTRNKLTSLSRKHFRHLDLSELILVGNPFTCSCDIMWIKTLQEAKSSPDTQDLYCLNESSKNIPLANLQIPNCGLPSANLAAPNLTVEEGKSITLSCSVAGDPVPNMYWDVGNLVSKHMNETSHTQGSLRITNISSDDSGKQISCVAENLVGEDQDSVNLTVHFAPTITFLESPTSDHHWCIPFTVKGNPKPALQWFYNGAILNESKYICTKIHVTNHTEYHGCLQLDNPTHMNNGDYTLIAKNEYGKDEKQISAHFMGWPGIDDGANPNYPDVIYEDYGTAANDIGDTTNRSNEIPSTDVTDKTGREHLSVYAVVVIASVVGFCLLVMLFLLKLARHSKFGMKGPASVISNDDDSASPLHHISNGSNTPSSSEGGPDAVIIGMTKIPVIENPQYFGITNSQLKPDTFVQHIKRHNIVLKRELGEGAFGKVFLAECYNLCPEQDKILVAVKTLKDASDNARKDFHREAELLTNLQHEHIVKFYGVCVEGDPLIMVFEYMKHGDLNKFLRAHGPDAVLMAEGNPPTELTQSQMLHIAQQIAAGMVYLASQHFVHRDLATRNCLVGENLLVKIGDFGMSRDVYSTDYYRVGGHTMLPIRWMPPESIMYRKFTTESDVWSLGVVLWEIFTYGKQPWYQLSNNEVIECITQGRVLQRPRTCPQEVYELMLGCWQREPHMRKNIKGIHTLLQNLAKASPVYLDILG
Briefly: In vitro activity test on TRKB kinase (HTRF KinEASE TK). As to conditions: 4.77 μM ATP, 50 min. The procedure:
as §1, §2, §3
0.037 ng/μL TRKB protein kinase, 1 μM TK Substrate-biotin polypeptide substrate, 4.77 μM ATP, 1× enzymatic buffer, 5 mM MgCl2, and 1 mM DTT. The detection plate was White Proxiplate 384-Plus plate (PerkinElmer), and incubated at room temperature for 50 min, and the assay volume was 10 μL.
as §4, §5

The target of assay [3] is T3, Recombinant human TRKC (Homo sapiens, UniProt Q16288).
T3 construct: purchased Carna Biosciences
T3 sequence (Q16288 32-839): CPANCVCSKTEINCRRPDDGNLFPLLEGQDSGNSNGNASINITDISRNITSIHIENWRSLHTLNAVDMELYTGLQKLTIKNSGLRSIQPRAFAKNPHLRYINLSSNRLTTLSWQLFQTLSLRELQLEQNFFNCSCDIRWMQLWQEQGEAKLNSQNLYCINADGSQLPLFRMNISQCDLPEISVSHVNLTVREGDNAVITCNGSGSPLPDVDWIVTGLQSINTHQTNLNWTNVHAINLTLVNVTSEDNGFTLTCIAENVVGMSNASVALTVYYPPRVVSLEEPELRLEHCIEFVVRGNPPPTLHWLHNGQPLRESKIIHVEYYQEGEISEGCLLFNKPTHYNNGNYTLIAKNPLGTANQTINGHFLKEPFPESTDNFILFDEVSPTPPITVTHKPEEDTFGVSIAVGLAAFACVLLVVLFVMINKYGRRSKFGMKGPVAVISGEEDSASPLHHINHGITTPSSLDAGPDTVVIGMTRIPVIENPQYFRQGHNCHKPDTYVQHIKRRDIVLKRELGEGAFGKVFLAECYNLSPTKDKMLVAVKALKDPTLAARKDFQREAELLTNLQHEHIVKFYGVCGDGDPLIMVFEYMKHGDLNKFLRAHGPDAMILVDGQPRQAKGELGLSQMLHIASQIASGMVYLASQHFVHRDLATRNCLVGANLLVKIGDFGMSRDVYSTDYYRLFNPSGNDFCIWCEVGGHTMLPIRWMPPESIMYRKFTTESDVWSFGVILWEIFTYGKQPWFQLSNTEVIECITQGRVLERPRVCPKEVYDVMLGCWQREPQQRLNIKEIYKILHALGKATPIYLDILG
Briefly: In vitro activity test on TRKC kinase (HTRF KinEASE TK). As to conditions: 25.64 μM ATP, 40 min. The procedure:
as §1, §2, §3
0.037 ng/μL TRKC protein kinase, 1 μM TK Substrate-biotin polypeptide substrate, 25.64 μM ATP, 1× enzymatic buffer, 5 mM MgCl2, and 1 mM DTT. The detection plate was White Proxiplate 384-Plus plate (PerkinElmer), and incubated at room temperature for 40 min, and the assay volume was 10 μL.
as §4, §5

Molecules are shown by their SMILES.

T1 sequence (P04629 33-796): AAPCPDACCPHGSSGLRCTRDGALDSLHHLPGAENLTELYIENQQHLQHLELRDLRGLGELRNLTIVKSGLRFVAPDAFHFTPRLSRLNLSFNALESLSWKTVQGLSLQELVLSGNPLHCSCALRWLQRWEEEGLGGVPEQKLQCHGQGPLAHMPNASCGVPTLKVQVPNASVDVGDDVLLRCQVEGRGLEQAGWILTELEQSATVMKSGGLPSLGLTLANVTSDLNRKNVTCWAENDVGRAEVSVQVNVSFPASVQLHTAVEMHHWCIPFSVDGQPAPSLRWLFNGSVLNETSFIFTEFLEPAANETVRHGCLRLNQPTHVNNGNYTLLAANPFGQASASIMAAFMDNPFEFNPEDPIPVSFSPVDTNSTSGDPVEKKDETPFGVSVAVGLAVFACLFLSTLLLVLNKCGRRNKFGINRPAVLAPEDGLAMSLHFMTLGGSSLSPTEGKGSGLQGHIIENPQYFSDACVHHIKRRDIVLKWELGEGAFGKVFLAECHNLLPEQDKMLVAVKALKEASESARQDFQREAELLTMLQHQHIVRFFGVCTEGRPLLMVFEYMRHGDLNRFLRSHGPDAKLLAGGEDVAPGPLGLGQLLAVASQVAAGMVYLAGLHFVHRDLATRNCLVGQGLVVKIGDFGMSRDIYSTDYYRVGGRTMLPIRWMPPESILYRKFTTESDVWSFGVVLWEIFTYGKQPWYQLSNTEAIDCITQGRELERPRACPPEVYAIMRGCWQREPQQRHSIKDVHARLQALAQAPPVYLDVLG

As to `O=C(Nc1ccnc2ccc(N3CCC[C@@H]3c3cc(F)ccc3F)nc12)c1cnc(N2CC[C@H](O)C2)nc1` [Example 8, N-(6-((R)-2-(2,5-difluorophenyl)pyrrolidin-1-yl)-1,5-naphthyridin-4-yl)-2-((S)-3-hydroxypyrrolidin-1-yl)pyrimidin-5-carboxamide], the 50% inhibitory concentration (IC50) in assay [1] was below 10 nM; in assay [2] it was below 1 nM; in assay [3], below 10 nM.
With `COc1ccc(CNc2ccnc3ccc(N4CCC[C@@H]4c4cc(F)ccc4F)nc23)cc1` [Example 9, (R)-6-(2-(2,5-Difluorophenyl)pyrrolidin-1-yl)-N-(4-methoxybenzyl)-1,5-naphthyridin-4-amine], the IC50 in assay [1], in assay [2] and in assay [3] was below 50 nM each time.
`CN(C)c1ccnc2ccc(N3CCC[C@@H]3c3cc(F)ccc3F)nc12` [Example 4, (R)-6-(2-(2,5-difluorophenyl)pyrrolidin-1-yl)-N,N-dimethyl-1,5-naphthyridin-4-amine]: the half-maximal inhibitory concentration (IC50) in assay [1], in assay [2] and in assay [3] was below 10 nM throughout.
As to `Fc1ccc(F)c([C@H]2C[C@H](F)CN2c2ccc3ncc(Cl)c(-c4cnc(N5CCNCC5)s4)c3n2)c1` [Example 60, 5-(3-Chloro-6-((2R,4S)-2-(2,5-difluorophenyl)-4-fluoropyrrolidin-1-yl)-1,5-naphthyridin-4-yl)-2-(piperazin-4-yl)thiazole], the IC50 in assay [1] is below 1 nM; in assay [2], below 10 nM; in assay [3] it was below 1 nM.
On to `Fc1ccc(F)c([C@H]2C[C@H](F)CN2c2ccc3nncc(-c4cnn(C5CCNCC5)c4)c3n2)c1` [Example 64, 6-((2R,4S)-2-(2,5-difluorophenyl)-4-fluoropyrrolidin-1-yl)-4-(1-(piperidin-4-yl)-1H-pyrazol-4-yl)pyrido[3,2-c]pyridazine], for which, in assay [1], the concentration for half-maximal inhibition (IC50) was below 1 nM.
In the case of `O[C@@H]1CCN(c2ccnc3ccc(N4CCC[C@@H]4c4cc(F)ccc4F)nc23)C1` [Example 3, (R)-1-(6-((R)-2-(2,5-difluorophenyl)pyrrolidin-1-yl)-1,5-naphthyridin-4-yl)pyrrolidin-3-ol], the 50% inhibitory concentration (IC50) in assay [1] is below 150 nM; in assay [2], below 500 nM; in assay [3] it was below 500 nM.
With `O[C@H]1CCN(c2ccnc3ccc(N4CCC[C@@H]4c4cc(F)ccc4F)nc23)C1` [Example 5, (S)-1-(6-((R)-2-(2,5-difluorophenyl)pyrrolidin-1-yl)-1,5-naphthyridin-4-yl)pyrrolidin-3-ol], the IC50 in assay [1] is below 100 nM; in assay [2], below 500 nM; in assay [3], below 150 nM.
The matching figures for `OC1CCN(c2nc(-c3c(F)cnc4ccc(N5C[C@@H](F)C[C@@H]5c5cc(F)ccc5F)nc34)no2)CC1` [Example 84, 1-(3-(6-((2R,4S)-2-(2,5-difluorophenyl)-4-fluoropyrrolidin-1-yl)-3-fluoro-1,5-naphthyridin-4-yl)-1,2,4-oxadiazol-5-yl)piperidin-4-ol]: below 1 nM, below 10 nM and below 1 nM.
On to `O=C1CC(n2cc(-c3ccnc4ccc(N5C[C@@H](F)C[C@@H]5c5cc(F)ccc5F)nc34)cn2)CCN1` (stereo partly drawn) [Example 19, 4-(4-(6-((2R,4S)-2-(2,5-difluorophenyl)-4-fluoropyrrolidin-1-yl)-1,5-naphthyridin-4-yl)-1H-pyrazol-1-yl)piperidin-2-one], for which the IC50 was below 10 nM in assay [1], below 500 nM in assay [2] and below 500 nM in assay [3].
`OCCNc1ccnc2ccc(N3CCC[C@@H]3c3cc(F)ccc3F)nc12` [Example 6, (R)-2-((6-(2-(2,5-Difluorophenyl)pyrrolidin-1-yl)-1,5-naphthyridin-4-yl)amino)ethan-1-ol]: the IC50 was below 100 nM in assay [1], below 500 nM in assay [2] and below 500 nM in assay [3].
Turning to `O=C(Nc1c(Cl)cnc2ccc(N3C[C@@H](F)C[C@@H]3c3cc(F)ccc3F)nc12)C1CCNCC1` [Example 62, N-(3-Chloro-6-((2R,4S)-2-(2,5-difluorophenyl)-4-fluoropyrrolidin-1-yl)-1,5-naphthyridin-4-yl) piperidin-4-carboxamide], the IC50 in assay [1] was below 1 nM.

What is called IC50 is the midpoint of a concentration-inhibition curve.

For the origin of these results see patent US20220017512A1 (SHANGHAI ENNOVABIO PHARMACEUTICALS CO., LTD., priority 2018, published 2022).
